Assay results from patent US20200390767A1, “Formulations of 4-(7-Hydroxy-2-isopropyl-4-oxo-4H-quinazolin-3-yl)-benzonitrile” (NOVARTIS AG, priority 2019, published 2020).
Like-named read-outs stand apart in the source and are kept apart here.

Experiments:
[1] = Pharmacokinetic study of exploratory formulations, single bilateral topical ocular dosing; format: in vivo; details: NZW rabbits
Procedure: A pharmacokinetics study was conducted to determine the ocular uptake of compound I following single bilateral topical ocular dosing of male NZW rabbits with the four exploratory formulations provided in Table 2: FID 121522, FID 121511, FID 121512, FID 121513.

PRK surgery patients [2] = assay: PRK clinical study, ocular safety assessments and vital signs; format: in vivo, human
Excerpt: (§1) Adverse events and serious adverse events included an assessment of both systemic and ocular assessments. Systemic safety assessments included regular assessments of height and weight, vital signs, reporting medication errors including misuse/abuse, pregnancy reporting and early phase safety monitoring. The misuse/abuse, pregnancy reporting and early phase safety monitoring were not assessed for the study. Ocular safety assessments included the following: • Best-corrected visual acuity (BCVA) and uncorrected visual acuity (UCVA): Was measured at each visit using an ETDRS visual acuity chart at 4 meters (13 feet) or 1 meter (for patients that cannot read the 4 meter chart). The BCVA scoring was done based on the number of correctly read letters plus 30. If visual acuity was so poor that the patient could not read any of the largest letters at 1 meter, count fingers and hand movement vision and light perception was tested. • Intraocular Pressure (TOP): IOP measurements were conducted with applanation tonometry or Tonopen. • Dilated fundus exam: The dilated fundus examination included ophthalmoscopic assessments of the vitreous, retina/macula/choroid, and optic nerve. Evaluations for retinal tear/detachment, retinal hemorrhage, vitreous hemorrhage density, vitreous haze grading and abnormal findings were done and scored according to grading criteria. • Ocular hyperemia: Conjunctival redness of the bulbar conjunctiva in each eye at the slit lamp according to the McMonnies redness scale was graded. […] By adjusting the calibrated slit beam width and height, the maximum horizontal (wound width) and vertical dimensions (wound height) of the surgical epithelial wound was estimated. The evaluation was performed until wound closure and report of wound size as 0 horizontal and 0 vertical dimensions. • Slit-lamp biomicroscopy: Ocular signs (eyelids/conjunctiva, cornea, lens, and iris/anterior chamber) was assessed in both eyes by slit lamp biomicroscopy according to the grading criteria. • Blink rate: A blink was defined as a bilateral paroxysmal closure of the eyelids (duration <1 second) in the absence of a provoking external stimulus. Each blink assessment lasted for 2 min (or as close to 2 minutes as possible with minimum time 1 minute) and the obtained blink rate was averaged to calculate blink rate in blinks/min. • Tear production (Schirmer's test without anesthesia): The test was performed without anesthetic in both eyes simultaneously. Tear secretion was measured in millimeters of the length of strip wetted by tears. […] The strip was wetted with 1 drop of sterile saline and flicked to remove excess saline. The patient blinked several times to ensure dispersion of the dye throughout the tear film prior to grading on a scale of 0-3 (0=Normal, No staining; 1=Mild, Superficial stippling micropunctate staining; 2=Moderate, Macropunctate staining with some coalescent areas and 3=Severe, Numerous coalescent macropunctate areas and/or patches) for each of 5 zones (central plus 4 quadrants).

TRPV1 receptor = TRPV1 receptor (Homo sapiens, UniProt Q8NER1); assay: TRPV1 receptor activity; format: cell-based
Procedure: “TRPV1 receptor” refers to the Transient Receptor Potential Vanilloid 1 that has been characterized through molecular cloning and pharmacology. See e.g., Caterina M J, et al., Nature 1997; 389:816-824. TRPV1 receptor activity is measured as described in WO2005/120510, hereby incorporated by reference in its entirety.

[3] = PRK clinical study, residual compound I in bandage contact lens; format: in vivo, human; details: Day 4; for concentration at 4 day: human, bandage contact lens extract, topical, 0.925 mg, 0.55 mL extraction fluid
Procedure: Compound I was quantified in plasma using a validated LC-MS/MS method; the lower limit of quantification (LLOQ) was 0.05 ng/mL. Concentrations were expressed in ng per mL units. When feasible, bandage contact lenses (BCL) exposed to study drug were collected and analyzed for residual drug exposure after treatment (LLOQ: 5.00 ng/mL in 0.55 mL of extraction fluid, or 2.75 ng/BCL). Concentrations below the LLOQ were reported as “zero” and missing data were labeled as such.
Bandage Contact Lens (BCL) was collected from 40 patients on Day 4 of the dose administration and analyzed for compound I. Values from the three IMP non-compliant patients were excluded from BCL summary statistics, leaving 37 values evaluable, including one value from a patient without available plasma PK. The mean concentration of compound I (CV %) in 0.55 mL extraction fluid was 8500 ng/mL (73.1%), with a wide range of 284 to 22600 ng/mL. These concentrations translate to an estimated mean of 4680 ng/lens (0.55 mL×8500 ng/mL), and a range of 156 to 12400 ng/lens. The amount in BCL was very small in relation to the 0.925 mg dose of compound I administered: mean 0.51%, and range of 0.017% to 1.3% of dose.

PRK surgery patients [4] = assay: PRK clinical study, adverse events; format: in vivo, human
Excerpt: Safety assessments consisted of collecting all AEs, SAES, with their severity and relationship to study drug. Only signs and symptoms greater than the listed ranges of either severity or duration were reported as AEs.
as §1
A total of 18 AEs were reported in 10 patients (25% of the 40 enrolled patients) of which twelve occurred after treatment with compound I, five after treatment with Vehicle and one occurred in one patient prior to dosing of the study drug. All AEs were either mild or moderate in severity.

[5] = across the scheduled time points

Sequence of TRPV1 receptor (Q8NER1 whole entry): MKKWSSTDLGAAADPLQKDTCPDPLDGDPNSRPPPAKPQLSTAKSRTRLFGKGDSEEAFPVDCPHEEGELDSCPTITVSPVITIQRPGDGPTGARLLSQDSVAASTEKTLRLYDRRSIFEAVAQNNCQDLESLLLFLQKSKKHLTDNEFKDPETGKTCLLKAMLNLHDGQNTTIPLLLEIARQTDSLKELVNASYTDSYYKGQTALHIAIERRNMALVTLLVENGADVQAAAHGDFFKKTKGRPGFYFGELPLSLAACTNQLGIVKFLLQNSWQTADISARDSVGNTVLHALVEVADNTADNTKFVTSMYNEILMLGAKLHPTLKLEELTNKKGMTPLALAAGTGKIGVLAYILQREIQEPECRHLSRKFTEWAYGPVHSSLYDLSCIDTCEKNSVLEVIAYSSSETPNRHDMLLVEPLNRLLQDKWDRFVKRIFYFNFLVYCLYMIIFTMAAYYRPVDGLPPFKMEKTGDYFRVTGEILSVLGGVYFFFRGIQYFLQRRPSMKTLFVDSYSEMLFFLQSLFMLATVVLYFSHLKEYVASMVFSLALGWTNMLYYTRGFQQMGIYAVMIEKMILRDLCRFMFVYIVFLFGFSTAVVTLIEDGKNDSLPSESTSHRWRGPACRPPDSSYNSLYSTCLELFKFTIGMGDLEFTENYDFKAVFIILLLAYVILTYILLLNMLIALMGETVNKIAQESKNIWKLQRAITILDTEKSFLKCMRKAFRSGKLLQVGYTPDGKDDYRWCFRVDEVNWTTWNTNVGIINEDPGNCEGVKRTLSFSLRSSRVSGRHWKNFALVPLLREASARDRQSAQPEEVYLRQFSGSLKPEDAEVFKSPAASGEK

SMILES: CC(C)c1nc2cc(O)ccc2c(=O)n1-c1ccc(C#N)cc1 [Compound I, 4-(7-hydroxy-2-isopropyl-4-oxo-4H-quinazolin-3-yl)-benzonitrile]
- exposure in cornea relative to aqueous humor and iris-ciliary body [1]: approximately 10 times
- Kp ([1]; male, rabbit, cornea / plasma, topical, read-out: exposure in cornea relative to plasma): ~500
- Ocular hyperemia, grade 4 (McMonnies scale), versus Vehicle (PRK surgery patients [2]; Day 2 postoperatively (24 hours after PRK surgery), all quadrants): less grade 4 hyperemia
- Ocular hyperemia, grade 3 (McMonnies scale), versus Vehicle (PRK surgery patients [2]; Day 3 (48 hours post-operative)): less grade 3 hyperemia
- Dilated fundus exam (PRK surgery patients [2]; [5]): No abnormal findings
- Slit-lamp biomicroscopy: aqueous flare, inflammatory cell grade, iris/anterior chamber, lens (PRK surgery patients [2]; [5]): No abnormalities were observed
- Corneal staining versus Vehicle (PRK surgery patients [2]; baseline, Day 8, EOS visit): No clinical differences were observed
- vital sign parameters (PRK surgery patients [2]; during the study): within the normal range
- BCVA and UCVA versus Vehicle (PRK surgery patients [2]; throughout the study): did not result in any trend or obvious difference
- Blink rate versus Vehicle (PRK surgery patients [2]; throughout the study): no trend across the scheduled time points or obvious differences
- Intraocular pressure versus Vehicle (PRK surgery patients [2]; throughout the study): No trend across the scheduled time points or obvious differences
- IC50 (TRPV1 receptor): 30 nM
- amount in BCL in relation to the 0.925 mg dose, mean [3]: 0.51 % of dose
- estimated mean amount in bandage contact lens [3]: 4680 ng/lens
- concentration at 4 day ([3]; read-out: concentration of compound I in bandage contact lens extract, range): 284 to 22600 ng/mL
- concentration at 4 day ([3]; read-out: mean concentration of compound I in bandage contact lens extract): 8500 ng/mL
- deaths, SAEs, discontinuations due to AEs (PRK surgery patients [4]; 40 enrolled patients): no deaths or SAEs
- eyes (treatment periods) with AEs of moderate severity (PRK surgery patients [4]; five AEs in four patients): four
- patients who experienced an AE only during this treatment (PRK surgery patients [4]; human, in vivo): Five
- relation of ocular AEs to study drug (PRK surgery patients [4]; human, in vivo): None of the AEs were suspected to be related
- patients who developed AEs after treatment (PRK surgery patients [4]; of 40 patients): Eight
- number of AEs after treatment (PRK surgery patients [4]; of a total of 18 AEs in 10 patients): twelve
- eyes with ocular AEs (mild severity) (PRK surgery patients [4]; six ocular AEs in four patients): three
- eyes (treatment periods) with non-ocular AEs (PRK surgery patients [4]; twelve non-ocular AEs in seven patients): six
